These results are taken from ChEMBL document CHEMBL5257050, “Structure Revisions of Phenolic Bisabolane Sesquiterpenes and a Ferroptosis Inhibitor from the Marine-Derived Fungus Aspergillus versicolor YPH93” (J Nat Prod, 2023).

For experiment [1], the system named is CCRF-CEM. Kind of experiment: Anti-necroptosis activity against TNFalpha-induced human CCRF-CEM cells assessed as cell viability at 10 uM pretreated for 0.5 hrs followed by TNFalpha stimulation by Cell-titer-glo assay. It counts as functional, cell-based.
For experiment [2], the system named is HT-1080. The experiment is described as follows: Cytotoxicity against human HT-1080 cells assessed as reduction in cell viability at 50 uM measured for 48 hrs by CCK-8 assay. It counts as functional, cell-based. A general note: Tetrazolium dyes change colour on reduction, which living cells bring about.
Experiment [3] is described as follows: Antioxidant activity assessed as DPPH radical scavenging activity at 10 uM measured for 30 mins relative to control. It is filed as functional. Background: The DPPH test is a chemical assay of radical scavenging.
Experiment [4] relates to CCRF-CEM. Kind of experiment: Induction of necrosis in H2O2-induced human CCRF-CEM cells at 10 uM pretreated for 0.5 hrs followed by H2O2 stimulation by Cell-titer-glo assay. It counts as functional, cell-based.
Experiment [5] deals with HT-1080. Kind of experiment: Anti-ferroptotic activity against erastin/RSL3-induced ferroptosis in human HT-1080 cells assessed as cell viability at 1 uM pretreated for 0.5 hrs followed by erastin/RSL3 stimulation by Cell-titer-glo assay. It is filed as functional, cell-based.
Experiment [6] relates to HT-1080. The experiment is described as follows: Anti-ferroptotic activity against RSL3-induced ferroptosis in human HT-1080 cells assessed as cell viability pretreated for 0.5 hrs followed by RSL3 stimulation by Cell-titer-glo assay. It is filed as functional, cell-based.
The subject of experiment [7] is CCRF-CEM. Kind of experiment: Anti-ferroptotic activity against RSL3-induced ferroptosis in human CCRF-CEM cells assessed as cell viability at 10 uM pretreated for 0.5 hrs followed by RSL3 stimulation by Cell-titer-glo assay. It counts as functional, cell-based.
Experiment [8] deals with HT-1080. The experiment is described as follows: Anti-ferroptotic activity against erastin-induced ferroptosis in human HT-1080 cells assessed as cell viability pretreated for 0.5 hrs followed by erastin stimulation by Cell-titer-glo assay. It counts as functional, cell-based.
The subject of experiment [9] is HT-1080. The experiment is described as follows: Anti-ferroptotic activity against erastin/RSL3-induced ferroptosis in human HT-1080 cells assessed as cell viability at 10 uM pretreated for 0.5 hrs followed by erastin/RSL3 stimulation by Cell-titer-glo assay. It is filed as functional, cell-based.
The subject of experiment [10] is HT-1080. The experiment is described as follows: Anti-ferroptotic activity against erastin-induced ferroptosis in human HT-1080 cells assessed as cell viability at 10 uM pretreated for 0.5 hrs followed by erastin stimulation by Cell-titer-glo assay. It counts as functional. Particulars: read-out: Activity.

pEC50: −log10 of the molar value. Active and inactive are the calls of the source. The rule behind the calls is not given here.

For `CC(C)(O)CCCC(C)(O)c1ccc(C(=O)O)cc1O` (stereo not given), the result in the experiment with CCRF-CEM [1], in the experiment on HT-1080 [2] and in the experiment on CCRF-CEM [4] was inactive. Further, the result in experiment [3] was Active.
For the molecule `C[C@]1(CO)CCC[C@](C)(c2ccc(C(=O)O)cc2O)O1`, the outcome in the experiment with CCRF-CEM [1], in the experiment on HT-1080 [2] and in the experiment on CCRF-CEM [4] was inactive. Further, the result in experiment [3] was Active.
`CCOC(=O)c1ccc(NC2CCCCC2)c(N)c1`: the result (in experiment [3]; with HT-1080 [5]) was Active.
Turning to `CC(=O)OCC(C)(O)CCCC(C)(O)c1ccc(C(=O)O)cc1O` (stereo not given), the outcome in the experiment with CCRF-CEM [1], in the experiment on HT-1080 [2] and in the experiment on CCRF-CEM [4] was inactive. Also, the result in experiment [3] was Active.
For `Cc1cccc(O)c1-c1cc(O)c(C)c(=O)o1`, the outcome in the experiment with CCRF-CEM [1], in the experiment on HT-1080 [2] and in the experiment with CCRF-CEM [4] was inactive. Besides, the result in experiment [3] was Active.
Turning to `CC(O)(CO)CCCC(C)(O)c1ccc(C(=O)O)cc1O` (stereo not given), the result in the experiment with CCRF-CEM [1], in the experiment on HT-1080 [2] and in the experiment with CCRF-CEM [4] was inactive. In addition, in experiment [3], the result was Active.
Turning to `C[C@@]1(CO)CCC[C@](C)(c2ccc(C(=O)O)cc2O)O1` (relative stereo), the result in the experiment with CCRF-CEM [1], in the experiment on HT-1080 [2] and with CCRF-CEM [4] was inactive. Also, the result in [3] was Active.
`CC1(C)O[C@@](C)(c2ccc(C(=O)O)cc2O)C[C@H](O)[C@H]1O` (relative stereo): the outcome in the experiment with CCRF-CEM [1], in the experiment with HT-1080 [2] and in the experiment with CCRF-CEM [4] was inactive. Also, the result in [3] was Active.
Take `CC1(C)CCC[C@](C)(c2ccc(C(=O)O)cc2O)O1`: the result in the experiment with CCRF-CEM [1], in the experiment on HT-1080 [2] and in the experiment with CCRF-CEM [4] was inactive. Moreover, the result in [3] was Active.
In the case of `CC(=O)OC[C@@]1(C)CCC[C@](C)(c2ccc(C(=O)O)cc2O)O1` (relative stereo), the outcome with CCRF-CEM [1], in the experiment on HT-1080 [2] and in the experiment with CCRF-CEM [4] was inactive. For the same molecule, the outcome in experiment [3] was Active.
The term pEC50 denotes the EC50 on a negative log10 scale, so that one unit is a factor of ten. With `C/C(=C\CCC(C)(O)CO)c1ccc(C(=O)O)cc1O` (stereo not given), the pEC50 with HT-1080 [6] is 5.68; in the experiment with HT-1080 [8], 5.47. In addition, the outcome (in the experiment on CCRF-CEM [7]; in the experiment on HT-1080 [9]; in experiment [3]) was Active. Besides, the outcome in the experiment on CCRF-CEM [1], with HT-1080 [2] and in the experiment on CCRF-CEM [4] was inactive.
Consider `C[C@]1(c2ccc(C(=O)O)cc2O)CC[C@H](O)[C@](C)(CO)O1` (relative stereo), for which the result with CCRF-CEM [1], with HT-1080 [2] and in the experiment on CCRF-CEM [4] was inactive. For the same molecule, in experiment [3], the outcome was Active.
Consider `C/C(=C/CCC(C)(C)O)c1ccc(C(=O)O)cc1O`, for which the result in the experiment with CCRF-CEM [1], in the experiment on HT-1080 [2] and in the experiment on CCRF-CEM [4] was inactive. For the same molecule, in [3], the result was Active.
Consider `CC(=O)OC[C@@]1(C)CCC[C@@](C)(c2ccc(C(=O)O)cc2O)O1`, for which the outcome with CCRF-CEM [1], with HT-1080 [2] and in the experiment with CCRF-CEM [4] was inactive. Moreover, in the experiment with HT-1080 [10], the viability at 10 µM was 50%. For the same molecule, the outcome in experiment [3] was Active.
For `CC(CCCC(C)(O)c1ccc(C(=O)O)cc1O)C(=O)O` (stereo not given), the result in the experiment with CCRF-CEM [1], with HT-1080 [2] and in the experiment with CCRF-CEM [4] was inactive. In addition, the result in experiment [3] was Active.
In the case of `CC1(c2ccc(C(=O)O)cc2O)CCC(=O)O1` (stereo not given), the result with CCRF-CEM [1], in the experiment with HT-1080 [2] and in the experiment with CCRF-CEM [4] was inactive. Moreover, the outcome in experiment [3] was Active.
Regarding `CC1(C)O[C@@](C)(c2ccc(C(=O)O)cc2O)C[C@H](O)[C@@H]1O` (relative stereo), the result in the experiment with CCRF-CEM [1], with HT-1080 [2] and in the experiment with CCRF-CEM [4] was inactive. Also, the result in [3] was Active.
Take `CC1(C)O[C@@](C)(c2ccc(C(=O)O)cc2O)[C@H](O)C[C@@H]1O` (relative stereo): the outcome in the experiment with CCRF-CEM [1], in the experiment on HT-1080 [2] and with CCRF-CEM [4] was inactive. In addition, in experiment [3], the result was Active.
